19 molecules from patent US7417048B2, “Aryl-substituted derivatives of cycloalkyl and branched chain alkyl carboxylic acids useful as antinociceptive drugs for peripheral targets” (priority 2003, dated 2008) can be followed below.

For the experiment, the system named is tongue of the test subject. Put plainly: Cold sensation threshold on tongue, impregnated filter paper. Format: in vivo, human. As to conditions: filter paper 1 × 1 cm on tongue, 30 sec, presence or absence of cooling effect.
Consider `CC1CCC(C(C)C)C(C(=O)Nc2cccc3ccccc23)C1` (stereo not shown) [N-(1′-naphthyl)-2-isopropyl-5-methylcyclohexanecarboxamide], for which the “Cold Sensation Threshold on Tongue” value was found to be 6 µg.
As for `COc1ccc(NC(=O)C2C3C=CC(C3)C2CC(C)C)c(OC)c1` (stereo not shown) [N-(2′,4′-dimethoxyphenyl)-3-isobutylbicyclo[2.2.1]hept-5-ene-2-carboxamide], the figure is 1 µg; as for `Cc1ccc(NC(=O)C2(C(C)C)CCCCCC2)c(C)c1` [N-(2′,4′-dimethylphenyl)-1-isopropylcycloheptanecarboxamide], 15 µg; as for `Cc1ccc(NC(=O)C(C)(C(C)C)C(C)C)c(C)c1` [N-(2′,4′-dimethylphenyl)-2-isopropyl-2,3-dimethylbutyramide], 1 µg.
`Cc1ccc(NC(=O)C2CC(C)CCC2C(C)C)c(C)c1` (stereo not shown) [N-(2′,4′-dimethylphenyl)-2-isopropyl-5-methylcyclohexanecarboxamide]: the “Cold Sensation Threshold on Tongue” value was 0.1 µg.
Turning to `Cc1ccc(C)c(NC(=O)C(C)(CC(C)C)C(C)C)c1` (stereo not shown) [N-(2′,5′-dimethylphenyl)-2-isopropyl-2,4-dimethylpentanamide], the “Cold Sensation Threshold on Tongue” value stood at 5 µg.
Under `Cc1ccc(C)c(NC(=O)C2C3CCC(C3)C2(C)C)c1` (stereo not shown) [N-(2′,5′-dimethylphenyl)-3,3-dimethylbicyclo[2.2.1]heptane-2-carboxamide] stands 20 µg; under `CC1CCC(C(C)C)C(C(=O)Nc2ccccc2O)C1` (stereo not shown) [N-(2′-hydroxyphenyl)-2-isopropyl-5-methylcyclohexanecarboxamide], 0.5 µg.
As for `COc1ccc(NC(=O)C2C3C=CC(C3)C2CC(C)C)c(C)c1` (stereo not shown) [N-(2′-methyl-4′-methoxyphenyl)-3-isobutylbicyclo[2.2.1]hept-5-ene-2-carboxamide], the figure is 1 µg; as for `CCCCC1C2C=CC(C2)C1C(=O)Nc1ccc(OC)cc1C` (stereo not shown) [N-(2′-methyl-4′-methoxyphenyl)-3-n-butylbicyclo[2.2.1]hept-5-ene-2-carboxamide], 1 µg; as for `COc1ccc(NC(=O)C2(C(C)C)CCCCCC2)cc1OC` [N-(3′,4′-dimethoxyphenyl)-1-isopropylcycloheptanecarboxamide], 5 µg.
Under `Cc1ccc(NC(=O)C2(C(C)C)CCCCCC2)cc1C` [N-(3′,4′-dimethylphenyl)-1-isopropylcycloheptanecarboxamide] stands 15 µg.
Regarding `Cc1ccc(NC(=O)C(C)(C(C)C)C(C)C)cc1C` [N-(3′,4′-dimethylphenyl)-2-isopropyl-2,3-dimethylbutyramide], the “Cold Sensation Threshold on Tongue” value came to 3 µg.
Take `COc1ccc(NC(=O)C2C3C=CC(C3)C2CC(C)C)cc1O` (stereo not shown) [N-(3′-hydroxy-4′-methoxyphenyl)-3-isobutylbicyclo[2.2.1]hept-5-ene-2-carboxamide]: the “Cold Sensation Threshold on Tongue” value was 8 µg.
Consider `CCCCC1C2C=CC(C2)C1C(=O)Nc1ccc(OC)c(O)c1` (stereo not shown) [N-(3′-hydroxy-4′-methoxyphenyl)-3-n-butylbicyclo[2.2.1]hept-5-ene-2-carboxamide], for which the “Cold Sensation Threshold on Tongue” value turned out to be 5 µg.
As for `Cc1ccc(NC(=O)C2(C(C)C)CCCCCC2)cc1O` [N-(3′-hydroxy-4′-methylphenyl)-1-isopropylcycloheptanecarboxamide], the figure is 1 µg; as for `Cc1ccc(NC(=O)C2CC(C)CCC2C(C)C)cc1O` (stereo not shown) [N-(3′-hydroxy-4′-methylphenyl)-2-isopropyl-5-methylcyclohexanecarboxamide], 0.1 µg; as for `CC(C)C1(C(=O)Nc2cccc(O)c2)CCCCCC1` [N-(3′-hydroxyphenyl)-1-isopropylcycloheptanecarboxamide], 10 µg.
As for `CC(=O)c1ccc(NC(=O)C2CC(C)CCC2C(C)C)cc1` (stereo not shown) [N-(4′-acetylphenyl)-2-isopropyl-5-methylcyclohexanecarboxamide], the figure is 2 µg.
